Measured values reported in US20090054317A1 (priority 2006, published 2009).
pIC50: −log10 of the molar value.

Tested on: toxin-induced cell death in RAW264.7 cells
Conditions: mouse

For CC(=O)N[C@@H](C)C(=O)N[C@@H](Cc1c[nH]c2ccccc12)C(=O)N1CCC[C@H]1C(=O)N[C@@H](CC(C)C)C(=O)N[C@@H](CO)C(=O)N[C@@H](CCC(N)=O)C(=O)N[C@@H](CC(C)C)C(=O)N[C@@H](CC(=O)O)C(=O)N[C@@H](Cc1c[nH]cn1)C(=O)N[C@@H](CO)C(=O)N[C@@H](Cc1ccc(O)cc1)C(=O)N[C@@H](CC(N)=O)C(=O)N[C@@H](CS)C(N)=O [corresponding monovalent peptide], the pIC50 was < 2.70.
